Reference: US20230000876A1, “TREATING CANCERS WITH A CYCLIN-DEPENDENT KINASE INHIBITOR” (Nuvation Bio Inc., priority 2021, published 2023)
Where two headings read alike, the source gives them in different places.

Assay: Pharmacokinetics and brain distribution after single oral dose, rats
Format: in vivo, male Sprague-Dawley rats
Conditions: for Kp at 6 h / concentration at 6 h / Cmax / Tmax / concentration at 1 h / concentration at 2 h / concentration at 4 h / concentration at 8 h / concentration at 12 h / AUC(0-inf) / half-life / concentration at 24 h: male, Sprague-Dawley, rat; for Kp at 6 h: po
Protocol: The pharmacokinetics and brain distribution in maleCD1 mice and Sprague-Dawley rats following a single oral (PO) dose was evaluated. The compound of formula (I) was administered once at 10 mg/kg to mice and at 1, 10, 30, and 100 mg/kg to rats. All doses, compound of formula (I) concentrations, and derived PK parameters are expressed as the free base of the compound of formula (I).
The in-life portion of these studies was performed by Alliance Pharma (Malvern, Pa.) according to Protocols 200107-02 (mice) and 1910158-02 (rats). Animals were assigned randomly to the dose groups and were fasted 12 hours prior to dosing. Water was available ad libitum. The compound of formula (I) (as an HCl salt) was given to male CD1 mice at 10 mg/kg single PO dose, while in Sprague-Dawley rats, the doses were 1, 10, 30, and 100 mg/kg. In both studies, the compound of formula (I) was formulated in 0.5% hydroxypropyl methylcellulose (HPMC)/0.2% Tween 80 and the dosing volume was 5 mL/kg for all dose groups.
Whole blood was collected at 2, 4, 6, and 12 hours post dose from mice and predose and 1, 2, 4, 8, 12, and 24 hours post dose from rats into tubes containing dipotassium ethylenediaminetetraacetic acid (K2EDTA). Blood was obtained from 3 mice and 4 rats per time-point per dose level. The blood samples were processed into plasma analyzed at Alliance Pharma using the method as described below.
The brain tissue was collected from mice at 2, 4, 6, and 12 hours post dose and was collected from rats at 6 hours post dose given 1, 10, 30, or 100 mg/kg of the compound of formula (I). Brain tissue was obtained from 3 mice per time-point at the 10 mg/kg dose level and 4 rats per dose level at the 6-hour post dose time-point.
Brain tissue was rinsed by phosphate-buffered saline (PBS) buffer immediately after harvest, weighed, and mixed with solvent (MeOH:H2O [volume over volume of 20:80]) with a ratio of tissue to solvent of 1:4 (weight over volume). […] After homogenization, the homogenate was aliquoted out for sample analysis.
The concentrations of the compound of formula (I) in the plasma and brain homogenate were determined versus a calibration curve prepared in plasma and naïve brain homogenate, respectively. Samples were deproteinized with acetonitrile containing tolbutamide as internal standard. After centrifugation, the supernatants were analyzed by liquid chromatography with tandem mass spectrometry (LC-MS/MS). Chromatography was performed with a Zorbax SB-C18 (50×2.1 mm, […]) column under gradient conditions described in Table 22. Mobile Phase A (0.1% formic acid [FA] in water) and Mobile Phase B (0.1% FA in acetonitrile) were delivered as a flow rate of 0.8 mL/min. LC-MS/MS was performed using a positive TurboIonSpray® interface on a SciexAPI 4000 and multiple-reaction monitoring (MRM) over a concentration range of 1 ng/mL to 1000 (rats) or 2000 (mice) ng/mL for the plasma and brain homogenate samples.
The mean plasma concentration-time data of the compound of formula (I) was used to determine the pharmacokineticparameters by standard noncompartmental methods using Phoenix® WinNonlin (version 8.2.0; Certara, Princeton, N.J.). Graphs were plotted in Prism® (version 2.3.0; GraphPad, San Diego, Calif.). Concentrations were rounded to 3 significant figures.

[1] = plasma, single PO 1 mg/kg (HCl salt, as free base)
[2] = plasma, single PO 10 mg/kg (HCl salt, as free base)
[3] = plasma, single PO 30 mg/kg (HCl salt, as free base)
[4] = plasma, single PO 100 mg/kg (HCl salt, as free base)

CC(C)N1CCOc2c(F)cc(-c3nc(Nc4ccc(C5CCN(C)CC5)cn4)ncc3F)cc21 [Compound (I), 5-fluoro-4-(8-fluoro-4-isopropyl-3,4-dihydro-2H-benzo[b][1,4]oxazin-6-yl)-N-(5-(1-methylpiperidin-4-yl)pyridin-2-yl)pyrimidin-2-amine]
Kp at 6 h (brain, 1 mg/kg, single PO 1 mg/kg, 6 h, read-out: Brain:Plasma Ratio): 6.3
Kp at 6 h (brain, 10 mg/kg, single PO 10 mg/kg, 6 h, read-out: Brain:Plasma Ratio): 6.1
Kp at 6 h (brain, 30 mg/kg, single PO 30 mg/kg, 6 h, read-out: Brain:Plasma Ratio): 11
Kp at 6 h (brain, 100 mg/kg, 6 hours post-dose, each dose level (1, 10, 30, 100 mg/kg PO), read-out: Brain-to-plasma concentration ratio): > 6
Kp at 6 h (brain, 100 mg/kg, single PO 100 mg/kg, 6 h, read-out: Brain:Plasma Ratio): 12
concentration at 6 h (brain, single PO 1 mg/kg, 6 h, read-out: Brain Conc): 58.9 ng/mL
concentration at 6 h (brain, single PO 10 mg/kg, 6 h, read-out: Brain Conc): 548 ng/mL
concentration at 6 h (brain, single PO 30 mg/kg, 6 h, read-out: Brain Conc): 1970 ng/mL
concentration at 6 h (brain, single PO 100 mg/kg, 6 h, read-out: Brain Conc): 2800 ng/mL
Cmax (plasma, single PO 1 mg/kg): 9.37 ng/mL
Tmax (plasma, single PO 1 mg/kg): 6 h
concentration at 1 h [1]: 1.52 ng/mL
concentration at 2 h [1]: 2.41 ng/mL
concentration at 4 h [1]: 4.91 ng/mL
concentration at 6 h (plasma, single PO 1 mg/kg (HCl salt, as free base), 6 h, read-out: Mean Plasma Concentration): 9.37 ng/mL
concentration at 8 h [1]: 6.42 ng/mL
concentration at 12 h [1]: 4.64 ng/mL
AUC(0-inf) (plasma, single PO 10 mg/kg): 1080 ng·h/mL
Cmax (plasma, single PO 10 mg/kg): 90.4 ng/mL
Tmax (plasma, single PO 10 mg/kg): 6 h
half-life (plasma, single PO 10 mg/kg): 7.54 h
concentration at 1 h [2]: 8.45 ng/mL
concentration at 2 h [2]: 25.9 ng/mL
concentration at 4 h [2]: 51.6 ng/mL
concentration at 6 h (plasma, single PO 10 mg/kg (HCl salt, as free base), 6 h, read-out: Mean Plasma Concentration): 90.4 ng/mL
concentration at 8 h [2]: 52.5 ng/mL
concentration at 12 h [2]: 46.3 ng/mL
concentration at 24 h (plasma, single PO 10 mg/kg (HCl salt, as free base), 24 h): 12.9 ng/mL
AUC(0-inf) (plasma, single PO 30 mg/kg): 3870 ng·h/mL
Cmax (plasma, single PO 30 mg/kg): 180 ng/mL
Tmax (plasma, single PO 30 mg/kg): 6 h
half-life (plasma, single PO 30 mg/kg): 13.4 h
concentration at 1 h [3]: 43.2 ng/mL
concentration at 2 h [3]: 73.1 ng/mL
concentration at 4 h [3]: 136 ng/mL
concentration at 6 h (plasma, single PO 30 mg/kg (HCl salt, as free base), 6 h, read-out: Mean Plasma Concentration): 180 ng/mL
concentration at 8 h [3]: 155 ng/mL
concentration at 12 h [3]: 117 ng/mL
concentration at 24 h (plasma, single PO 30 mg/kg (HCl salt, as free base), 24 h): 66.4 ng/mL
Cmax (plasma, single PO 100 mg/kg): 243 ng/mL
Tmax (plasma, single PO 100 mg/kg): 6 h
concentration at 1 h [4]: 81.2 ng/mL
concentration at 2 h [4]: 142 ng/mL
concentration at 4 h [4]: 151 ng/mL
concentration at 6 h (plasma, single PO 100 mg/kg (HCl salt, as free base), 6 h, read-out: Mean Plasma Concentration): 243 ng/mL
concentration at 8 h [4]: 170 ng/mL
concentration at 12 h [4]: 193 ng/mL
concentration at 24 h (plasma, single PO 100 mg/kg (HCl salt, as free base), 24 h): 224 ng/mL
Mean Plasma Concentration (single PO 1 mg/kg (HCl salt, as free base), 24 h): BQL
